Test results: PubChem BioAssay AID2060483 (Molecular Pharmacology Branch, DTP, NCI, 2025)
Values joined by “and” are separate entries in the source; they are usually repeats but may differ in a detail not shown here. Equal values may be shown once.

Test system: K24384-001-R-PDC complex spheroids, viability
Test: Anticancer human tumor K24384-001-R-PDC patient-derived pancreatic adenocarcinoma cell line growth inhibition [GQUAD]
Conditions: for viability, T/C: stronger effect = lower value; active = viability on the fitted dose curve at most 10% of control; inactive = the rest
From the text: DNA G-quadruplex Stabilizer Agents in Combinations in Complex Spheroids
A high-throughput screen of multi-cell type tumor spheroids was designed to identify active combinations of DNA G-quadruplex stabilizer agents and targeted small molecules. Complex spheroids include a stromal component modeled by human endothelial cells (HUVEC) and fibroblasts modeled by human mesenchymal stem cells (MSCs). The concentration ranges selected for each drug and investigational agent were based upon clinically achievable concentrations if the clinical Cmax of the agent was known.
Compounds. The drugs and investigational agents: pidnarulex (CX-5461; NSC782164), APTO-253 (NSC789042), BRACO-19 (NSC847499), peposertib (NSC802822), ceralasertib (NSC780249), elimusertib (NSC800525), camonsertib (NSC841442), AZD-1390 (NSC803789), olaparib (NSC753686), talazoparib (NSC767125), ART-558 (NSC835418), sotorasib (NSC818433), MRTX-1133 (NSC836407), SN-38 (NSC673596), topotecan (NSC609699), etoposide (NSC141540), doxorubicin (NSC123127), gemcitabine (NSC613327), 5-fluorouracil (NSC19893), paclitaxel (NSC125973), vemurafenib (NSC761431), panobinostat (NSC761190), R-306465 (JNJ-16241199; NSC773264), adavosertib (NSC754352), TP-3654 (NSC805149), carboplatin (NSC241240), KSQ-4279 (NSC840948), and staurosporine (NSC755774) were obtained from the National Cancer Institute (NCI) Developmental Therapeutics Program Chemical Repository (34). The FDA-approved anticancer drug set is available from the NCI Developmental Therapeutics Program. […] The stock solutions were prepared in dimethyl sulfoxide (DMSO, Sigma-Aldrich, St. Louis, MO, cat. D2650) at 800-fold the tested concentration and stored at -70 degrees C prior to their use. All drugs and investigational agents were tested over a range starting from a high concentration at or near the clinical Cmax and decreasing in half-log increments. If the clinical Cmax for an agent had not been determined, the highest concentration tested was 10 microM.
2.3 Cell Culture. All cells were maintained in an incubator at 37 degrees C and 5% CO2 with 95% humidity. The PDC lines were cultured according to standard operating procedures established by the NCI PDMR. All PDCs were thawed and cultured in Matrigel-coated flasks prepared with a working solution of 1X Ham's F-12 nutrient mix, without supplementation (Invitrogen, cat. 11765054), 100 U/mL penicillin-streptomycin (Invitrogen, cat. 15140122), and 2.5% Matrigel (Corning Inc., cat. 354248) for the first three passages. The 857933-349-R-J2-PDC line was cultured in 6C/Colon 1B media, which includes advanced DMEM/F-12 (Thermo Fisher Scientific, cat. 12634028), 10 mM HEPES (Thermo Fisher Scientific, cat. 15630080), 1X GlutaMAX supplement (Thermo Fisher Scientific, cat. 35050061), 0.1 mg/mL primocin (InvivoGen, cat. ant-pm-2), 10% defined fetal bovine serum, heat inactivated (HyClone Laboratories Inc., cat. SH30070.03HI), 50% L-WRN conditioned media (ATCC, cat. CRL-3276), 1.25 mM N-Acetyl-L-cysteine (Sigma-Aldrich, cat. A9165), 10 mM nicotinamide (Sigma-Aldrich, cat. N0636), 1X B-27 supplement (Thermo Fisher Scientific, cat. 17504044), 1X N-2 supplement (Thermo Fisher Scientific, cat. 17502048), 10 microM Y-27632 dihydrochloride (Tocris Bioscience, cat. 1254), and 50 ng/mL human EGF recombinant protein (Thermo Fisher Scientific, cat. PHG0311). The 485176-168-R4-J1-PDC line was cultured in Panc media, which includes all 6C/Colon 1B media components plus 100 ng/mL human FGF-10 (Thermo Fisher Scientific, cat. 100-26), 500 nM SB-431542 (Selleckchem, cat. S1067), and gastrin (Tocris, cat. 3006).
[…]

[1] = curve of first compound, second compound 0.0316 µM
[2] = curve of first compound, second compound 0.1 µM
[3] = curve of first compound, second compound 0.316 µM
[4] = curve of first compound, second compound 1 µM
[5] = curve of first compound, second compound 3.16 µM
[6] = curve of first compound, second compound 10 µM
[7] = second compound 0.0316 µM, first compound 0.0316 µM
[8] = second compound 0.0316 µM, first compound 0.316 µM
[9] = second compound 0.1 µM, first compound 0.0316 µM
[10] = second compound 0.1 µM, first compound 0.316 µM
[11] = second compound 0.316 µM, first compound 0.0316 µM
[12] = second compound 0.316 µM, first compound 0.316 µM
[13] = second compound 1 µM, first compound 0.0316 µM
[14] = second compound 1 µM, first compound 0.316 µM
[15] = second compound 3.16 µM, first compound 0.0316 µM
[16] = second compound 3.16 µM, first compound 0.316 µM
[17] = second compound 10 µM, first compound 0.0316 µM
[18] = second compound 10 µM, first compound 0.316 µM
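Also: spheroids exposed to compounds for seven days.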

CCc1c2c(nc3ccc(O)cc13)-c1cc3c(c(=O)n1C2)COC(=O)[C@]3(O)CC + CN(C)c1ccc(Nc2c3ccc(NC(=O)CCN4CCCC4)cc3nc3cc(NC(=O)CCN4CCCC4)ccc23)cc1
5.68 nM: IC50 [3]
16.2 nM: IC50 [6]
8.91 nM: IC50 [2]
inactive: viability, T/C (second compound 0.0316 µM, first compound 0.000999 µM) 80.2% | viability, T/C (second compound 0.0316 µM, first compound 0.00316 µM) 78.2% | viability, T/C (second compound 0.0316 µM, first compound 0.00999 µM) 39.6% | viability, T/C [7] 32.2% | viability, T/C (second compound 0.0316 µM, first compound 0.0999 µM) 35.4% | viability, T/C [8] 30.3% | viability, T/C (second compound 0.1 µM, first compound 0.000999 µM) 69.6% | viability, T/C (second compound 0.1 µM, first compound 0.00316 µM) 62.7% | viability, T/C (second compound 0.1 µM, first compound 0.00999 µM) 49.7% | viability, T/C [9] 34.2% | viability, T/C (second compound 0.1 µM, first compound 0.0999 µM) 36.1% | viability, T/C [10] 32.3% | viability, T/C (second compound 0.316 µM, first compound 0.000999 µM) 73.2% | viability, T/C (second compound 0.316 µM, first compound 0.00316 µM) 65.2% | viability, T/C (second compound 0.316 µM, first compound 0.00999 µM) 35.2% | viability, T/C [11] 42.8% | viability, T/C (second compound 0.316 µM, first compound 0.0999 µM) 33.6% | viability, T/C [12] 26.3% | viability, T/C (second compound 1 µM, first compound 0.000999 µM) 69.8% | viability, T/C (second compound 1 µM, first compound 0.00316 µM) 58.2% | viability, T/C (second compound 1 µM, first compound 0.00999 µM) 39.9% | viability, T/C [13] 39.9% | viability, T/C (second compound 1 µM, first compound 0.0999 µM) 28.6% | viability, T/C [14] 28% | viability, T/C (second compound 3.16 µM, first compound 0.000999 µM) 82.3% | viability, T/C (second compound 3.16 µM, first compound 0.00316 µM) 51.2% | viability, T/C (second compound 3.16 µM, first compound 0.00999 µM) 37% | viability, T/C [15] 37.5% | viability, T/C (second compound 3.16 µM, first compound 0.0999 µM) 34% | viability, T/C [16] 30.9% | viability, T/C (second compound 10 µM, first compound 0.000999 µM) 70.7% | viability, T/C (second compound 10 µM, first compound 0.00316 µM) 61.2% | viability, T/C (second compound 10 µM, first compound 0.00999 µM) 59.4% | viability, T/C [17] 37.3% | viability, T/C (second compound 10 µM, first compound 0.0999 µM) 36.6% | viability, T/C [18] 32.8%
5.64 nM: IC50 [4]
3.47 nM: IC50 [5]
7.33 nM: IC50 [1]

O=C(NO)c1cnc(N2CCN(S(=O)(=O)c3ccc4ccccc4c3)CC2)nc1 + Cc1[nH]c2ccc(F)cc2c1-c1nc2c3cccnc3c3ncccc3c2[nH]1
1050 nM: IC50 [4]
active: viability, T/C (second compound 0.0316 µM, first compound 3.16 µM) 0.14% | viability, T/C (second compound 0.0316 µM, first compound 10 µM) 0.17% | viability, T/C (second compound 0.1 µM, first compound 3.16 µM) 0.16% | viability, T/C (second compound 0.1 µM, first compound 10 µM) 0.15% | viability, T/C (second compound 0.316 µM, first compound 3.16 µM) 0.1% | viability, T/C (second compound 0.316 µM, first compound 10 µM) 0.12% | viability, T/C (second compound 1 µM, first compound 3.16 µM) 0.16% | viability, T/C (second compound 1 µM, first compound 10 µM) 0.12% | viability, T/C (second compound 3.16 µM, first compound 3.16 µM) 0.18% | viability, T/C (second compound 3.16 µM, first compound 10 µM) 0.14% | viability, T/C (second compound 10 µM, first compound 3.16 µM) 0.22% | viability, T/C (second compound 10 µM, first compound 10 µM) 0.17%
inactive: viability, T/C [7] 109% | viability, T/C (second compound 0.0316 µM, first compound 0.1 µM) 105% | viability, T/C [8] 87.7% | viability, T/C (second compound 0.0316 µM, first compound 1 µM) 23.1% | viability, T/C [9] 96.6% | viability, T/C (second compound 0.1 µM, first compound 0.1 µM) 103% | viability, T/C [10] 79.2% | viability, T/C (second compound 0.1 µM, first compound 1 µM) 35% | viability, T/C [11] 102% | viability, T/C (second compound 0.316 µM, first compound 0.1 µM) 94.5% | viability, T/C [12] 88.4% | viability, T/C (second compound 0.316 µM, first compound 1 µM) 40.5% | viability, T/C [13] 105% | viability, T/C (second compound 1 µM, first compound 0.1 µM) 107% | viability, T/C [14] 101% | viability, T/C (second compound 1 µM, first compound 1 µM) 52.3% | viability, T/C [15] 75.6% | viability, T/C (second compound 3.16 µM, first compound 0.1 µM) 110% | viability, T/C [16] 88.7% | viability, T/C (second compound 3.16 µM, first compound 1 µM) 44.7% | viability, T/C [17] 71.5% | viability, T/C (second compound 10 µM, first compound 0.1 µM) 95.8% | viability, T/C [18] 82.7% | viability, T/C (second compound 10 µM, first compound 1 µM) 44.9%
871 nM: IC50 [5]
671 nM: IC50 [2]
858 nM: IC50 [6]
618 nM: IC50 [1]
787 nM: IC50 [3]

C#Cc1c(F)ccc2cc(O)cc(-c3ncc4c(N5CC6CCC(C5)N6)nc(OCC56CCCN5CC(F)C6)nc4c3F)c12 (stereo unspecified)
2060 nM and 1350 nM and 1320 nM: IC50 (curve of compound)
inactive: viability, T/C (compound 0.0316 µM) 107% and 94.9% and 91.9% | viability, T/C (compound 0.1 µM) 99.2% and 99.3% and 86.2% | viability, T/C (compound 0.316 µM) 98.2% and 95.7% and 83.9% | viability, T/C (compound 1 µM) 74.1% and 52.7% and 53% | viability, T/C (compound 3.16 µM) 35.6% and 35.4% and 33.3% | viability, T/C (compound 10 µM) 19.8% and 14.8% and 18.1%
